Test results: paper PMC5834492, “Antimycobacterial drug discovery using Mycobacteria-infected amoebae identifies anti-infectives and new molecular targets” (Scientific Reports, 2018)
Like-named read-outs stand apart in the source and are kept apart here.

Key:
M. marinum luxCDABE = type: cell-based, Mycobacterium marinum
Mtb H37Rv in THP-1 = system: Mtb H37Rv in THP-1; parameters: method as in Sorrentino et al, 2015; settings: ref Sorrentino et al, 2015, cited from earlier work; for Extracellular MIC90/ Inracellular MIC90: ratio
[1] = system: M. marinum in BV2 microglial cells; type: cell-based, Mycobacterium marinum
Mtb H37Rv = system: Mtb H37Rv; parameters: method as in Sorrentino et al, 2015; settings: ref Sorrentino et al, 2015; cited from earlier work
[2] = system: M. marinum in A. castellanii; type: cell-based, Mycobacterium marinum
D. discoideum GFP-ABD = settings: 10 µM
M. marinum GFP = type: cell-based, Mycobacterium marinum; settings: 10 µM; antibiotic assay
[3] = THP1 / Mtb H37Rv infection assay

SMILES | M. marinum luxCDABE normalised growth, control=1.00, mean (M. marinum luxCDABE; 10 µM) | Intracelullar MIC90 in THP-1 (Mtb H37Rv in THP-1; [3]) | Extracellular MIC90/ Inracellular MIC90 (Mtb H37Rv in THP-1) | IC50 [1] | BV2 / M. marinum normalised growth, control=1.00, mean ([1]; 10 µM) | Extracellular MIC90 (Mtb H37Rv) | A. castellanii / M. marinum normalised growth, control=1.00, mean ([2]; 10 µM) | D. discoideum GFP-ABD normalised growth, control=1.00, mean (D. discoideum GFP-ABD) | M. marinum GFP normalised growth, control=1.00, mean (M. marinum GFP) | M. marinum luxCDABE normalised growth, control = 1.00, mean (M. marinum luxCDABE; 10 µM) | Intracelullar MIC90 in THP-1 (Mtb H37Rv in THP-1; Mtb H37Rv-infected THP1 cells) | anti-infective properties in microglial cell (BV2) infection assay ([1]; 10 µM) | hit in BV2/M. marinum assay True/False ([1]; 10 µM) | Hits A. castellanii/M. marinum assay True/False ([2]; 10 µM) | anti-infective properties in A. castellanii infection assay ([2]; 10 µM) | Antibiotic assays: M. marinum luxCDABE (M. marinum luxCDABE) | Intracellular infection assays: BV2 / M. marinum [1] | Intracellular infection assays: A. castellanii / M. marinum [2]
FC(F)(F)c1nnc2ccc(Cl)nn12 [GSK352635A] | 0.60 | 50 µM | 0.18 | 7.58 µM | 0.89 | 9.1 µM | 1.02 | 1.17 | 0.81 |  |  |  |  |  |  |  |  | 
CNc1nc(SC)nc2ccccc12 [GSK353069A] | 0.00 | 0.07 µM | 2.86 | 1.31 µM | 0.42 | 0.2 µM | 0.47 | 0.99 | 0.0149 | 0,00 | 0.07 µM | strong anti-infective properties | TRUE | TRUE | strong anti-infective properties |  |  | 
C=CCNc1nc(SC)nc2ccccc12 [GSK353071A] | 0.095 | 1.85 µM | 1.73 | 4.77 µM | 0.53 | 3.2 µM | 0.77 | 0.92 | 0.09 |  |  |  |  |  |  |  |  | 
Clc1ccc(Nc2nc(-c3ccccn3)cs2)nc1 [GSK445886A] | 0.075 | >50 µM |  | 1.75 µM | 0.84 |  | 1.31 |  | 0.31 |  |  |  |  |  |  |  |  | 
COc1ccc2sc(Nc3nc(-c4ccccn4)cs3)nc2c1 [GSK690382A] | 0.00 |  |  | 11.9 µM | 0.85 |  | 1.07 | 1.25 | 0.98 |  |  |  |  |  |  |  |  | 
O=C(COc1cccc(F)c1)Nc1nc(-c2ccccn2)cs1 [GSK920684A] |  | 50 µM |  |  |  |  |  |  |  |  |  |  |  |  |  | 0.00 |  | 
CSc1ccc(C(=O)Nc2nc(-c3ccccn3)cs2)cc1 [GSK921295A] |  | 50 µM | 0.17 |  |  | 8.7 µM |  |  |  |  |  |  |  |  |  | 0.00 | 1.23 | 1.37
O=C(O)C(F)(F)F.c1ccc(C[C@H]2CN(c3nccc(Oc4ccc(-n5ccnc5)cc4)n3)CCN2)cc1 [GSK1519001A] | 0.18 |  |  |  | 0.74 |  | 1.14 | 0.76 | 0.97 |  |  |  |  |  |  |  |  | 
CSc1ccc(-c2nnc(NC(=O)c3ccc(Cl)s3)o2)cc1 [GSK1650514A] | 0.00 | >50 µM |  | 19.7 µM | 0.90 |  | 1.31 | 1.16 | 0.91 |  |  |  |  |  |  |  |  | 
Cc1ccc2[nH]c(C3CCCNC3)c(-c3ccncc3)c2c1 (centres unmarked) [GSK1905227A] | 0.08 |  |  | 9.76 µM | 0.77 |  | 1.23 | 0.85 | 0.55 |  |  |  |  |  |  |  |  | 
COc1cc(CN2CCC3(C=Cc4ccccc43)CC2)cc2c1OCO2 [SB-354364] | 1.00 |  |  | 16.8 µM | 0.80 |  | 1.02 | 0.86 | 0.83 |  |  |  |  |  |  |  |  | 
